No end group written: not given here.
Molecular target: T1, bovine trypsin (Bos taurus, UniProt P00760)
T1 sequence (P00760 24-246): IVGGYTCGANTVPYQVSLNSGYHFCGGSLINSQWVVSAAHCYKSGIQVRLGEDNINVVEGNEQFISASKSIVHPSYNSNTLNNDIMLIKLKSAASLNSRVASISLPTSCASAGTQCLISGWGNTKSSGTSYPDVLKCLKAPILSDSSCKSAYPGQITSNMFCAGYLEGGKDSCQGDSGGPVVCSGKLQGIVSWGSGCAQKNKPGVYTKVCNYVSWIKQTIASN
Assay: In vitro stability against proteolysis
Settings: bovine trypsin (1000 U/mL stock, 100 µL) with 1 mM CaCl2 in PBS + 400 µL antigen solution (PJ8 1.25 mg/mL in PBS); 37 °C; HPLC with calibration curve

Substance: AKFVAAWTLKAAAQAEDKVKQSREAKKQVEKALKQLEDKVQ-NH2 [PJ8]
- time to full degradation by trypsin: ≤ 30 min
